Tests used:
Type in all cases: cell-based
Akt = Akt phosphorylation in PC12 cells (Western blot); design: unit not given here; conditions: 500 nM, 30′
Protocol: (§1) For immunoprecipitation experiments PC12 or HEK293T, cells were used when at 70–80% confluent. Cells were starved of serum for 4 h and subsequently treated with 100 ng/mL NGF or 500 nM of compound ENT-A013 for 30′. Cells were then lysed in Pierce™ IP Lysis Buffer (87788, Thermo Fischer Scientific, Waltham, MA, USA) containing proteases (539138, Calbiochem, Darmstadt, Germany) and phosphatase inhibitors (524629, Calbiochem, Darmstadt, Germany). Lysates were then immunoprecipitated overnight at 4 °C with TrkA antibody (1:100, 06-574, Sigma-Aldrich, St. Louis, MO, USA) (Table S1) or p75^NTR antibody (1:100, ab6172, Abcam plc., Cambridge, UK) followed by 4 h incubation with protein G-plus agarose beads (sc-2002, Santa Cruz Biotechnology, Inc., Dallas, TX, USA). Beads were then collected, washed 3X with lysis buffer, resuspended in SDS loading buffer and subjected to Western blot against phosphorylated Tyrosine (1:1000, BAM1676, R&D Systems, Inc., Minneapolis, MN, USA) or Traf6 antibody (1:2000, ab33915, Abcam, plc., Cambridge, UK). […]

Akt and Erk1/2 = Akt and Erk1/2 phosphorylation in NIH-3T3 cells transfected with TrkB or TrkC; conditions: 500 nM, 30′
Protocol: cells were stably transfected with TrkB and treated with ENT-A013 (500nM) or BDNF (500ng/ml) for 30’ and then subjected to Western Blot against phosphorylated TrkB and […]
either TrkB or Akt by ENT-A013. (C) NIH-3T3 cells were stably transfected with TrkC and (1 picture or pasted object on this page, not shown here) […]
treated with ENT-A013 (500nM) or Neurotrophin-3 (100ng/ml) for 30’ and then subjected to Western Blot against phosphorylated TrkC, Akt and Erk1/2. […]
phosphorylated any of those. (D) CellTox assay was performed in NIH-3T3-TrkB cells that were starved from serum and treated with ENT-A013 or BDNF for 24hrs. Quantification (E) […]
negative control (Serum Free).
Supplementary Figure S3: Primary DRG neurons were cultured in the presence of ENT-A013 (500nM, supplemented every 48hrs) and a neutralizing antibody against NGF for 5 days and then neurite length was measured by immunostaining against Tuj1 .
Supplementary Figure S4: Primary hippocampal neurons at 14-16 DIV were treated with oligomeric Aβ and in the presence of ENT-A013 (500nM, supplemented every 24hrs) for 48hrs and then were subjected to Western Blot against phosphorylated JNK. A representative blot […]

[1] = system: HEK cells transfected with p75NTR; assay: CellTox assay in serum-starved HEK cells transfected with p75NTR; conditions: 500 nM, 24hrs
Protocol: (A) HEK cells transfected with p75NTR and Traf6 were treated with ENT-A013 (500nM) or NGF (100ng/ml) for 30’ and then were subjected to immunoprecipitation experiments against p75.
(C) HEK cells transfected with p75NTR were starved from serum and treated with ENT-A013 (500nM) or NGF (100ng/ml) for 24hrs and subsequently subjected to CellTox assay. […]
difference between ENT-A013 treated group and negative control (Serum Free).
(1 picture or pasted object on this page, not shown here)

TrkC = biological target: T1, TrkC (Homo sapiens, UniProt Q16288); assay: TrkC phosphorylation in NIH-3T3 cells stably transfected with TrkC; conditions: 500 nM, 30′
T1 construct: expressed in transfected cells
Protocol: as §1
phosphorylated any of those. […] Quantification (E) […]
Supplementary Figure S3: Primary DRG neurons were cultured in the presence of ENT-A013 (500nM, supplemented every 48hrs) and a neutralizing antibody against NGF for 5 days and then neurite length was measured by immunostaining against Tuj1 . […]

T1 sequence (Q16288 32-839, species assumed): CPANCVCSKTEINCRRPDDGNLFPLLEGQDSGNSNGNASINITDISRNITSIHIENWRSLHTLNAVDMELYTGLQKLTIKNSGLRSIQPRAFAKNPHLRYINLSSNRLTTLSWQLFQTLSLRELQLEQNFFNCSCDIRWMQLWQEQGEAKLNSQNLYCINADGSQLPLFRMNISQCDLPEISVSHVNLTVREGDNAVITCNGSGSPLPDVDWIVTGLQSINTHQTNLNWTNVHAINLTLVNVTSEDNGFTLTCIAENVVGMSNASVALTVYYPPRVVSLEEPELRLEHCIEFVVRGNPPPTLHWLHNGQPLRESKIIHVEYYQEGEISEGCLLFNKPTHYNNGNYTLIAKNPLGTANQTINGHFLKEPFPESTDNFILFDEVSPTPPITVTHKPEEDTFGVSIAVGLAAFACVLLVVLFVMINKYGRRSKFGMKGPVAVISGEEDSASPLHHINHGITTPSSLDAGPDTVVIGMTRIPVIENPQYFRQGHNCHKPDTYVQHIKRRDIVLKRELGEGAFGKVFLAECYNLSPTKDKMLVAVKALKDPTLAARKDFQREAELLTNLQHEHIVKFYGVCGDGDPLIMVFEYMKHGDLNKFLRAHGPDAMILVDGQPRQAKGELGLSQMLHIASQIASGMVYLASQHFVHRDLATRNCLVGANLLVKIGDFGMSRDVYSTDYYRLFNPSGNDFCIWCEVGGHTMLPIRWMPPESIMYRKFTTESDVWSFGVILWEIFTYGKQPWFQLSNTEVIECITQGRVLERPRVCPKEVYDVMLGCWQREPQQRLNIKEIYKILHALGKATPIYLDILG

Question: Which Akt phosphorylation (Akt) does the source give for `CC12CCC(O)CC1=CCC1C2CCC2(C)C1CCC21CC1C=CBr` [ENT-A013, (2′R,3S,17S)-2′-(2-Bromovinyl)-5-Androstene-17,1′-Cyclopropan-3-ol] here?
Answer: 3.8 ± 1.15

Question: And the “Akt phosphorylation (in words)” value (Akt and Erk1/2; NIH-3T3 TrkB cells)?
Answer: no significant difference in the phosphorylation

Question: What about the “Akt and Erk1/2 phosphorylation (in words)” value (Akt and Erk1/2; NIH-3T3 TrkC cells) of the same compound?
Answer: failed to

Question: What about the “cell death vs negative control (Serum Free) (in words)” value [1] of the same compound?
Answer: no significant

Question: And the “TrkC phosphorylation (in words)” value (TrkC)?
Answer: did not induce phosphorylation

Reference: article PMC8945229, “Development and Biological Characterization of a Novel Selective TrkA Agonist with Neuroprotective Properties against Amyloid Toxicity” (Biomedicines, 2022)
